Experimental data from ChEMBL document CHEMBL5325415, “Falcipains: Biochemistry, target validation and structure-activity relationship studies of inhibitors as antimalarials” (Eur J Med Chem, 2023).
In brackets after ≈: the same amount, converted by molar mass. Blank lines part the entries; values can stand above or below the molecule they belong to. *1 amine or outer side, *2 acyl side, *3 side chain or, on linkers, in order; H or OH if unused. Where a SMILES comes first, the peptide text is derived from it. [ ]: non-standard residue; d: D form. The star is where a group is joined. hPhe = N[C@@H](CCc1ccccc1)C(=O)O; Morpholide = C1CN(*)CCO1; CO = O=C([*:1])[*:2]; CH2F = FC*

How the values were obtained:
[1] = target: T1, Falcipain 2 (Plasmodium falciparum, UniProt Q9N6S8); assay: Inhibition of Plasmodium falciparum FP-2 using Z-Leu-Arg-AMC as substrate pretreated with enzyme for 30 mins followed by substrate addition and measured for 30 mins by spectrofluorometry
T1 sequence (Q9N6S8 whole entry): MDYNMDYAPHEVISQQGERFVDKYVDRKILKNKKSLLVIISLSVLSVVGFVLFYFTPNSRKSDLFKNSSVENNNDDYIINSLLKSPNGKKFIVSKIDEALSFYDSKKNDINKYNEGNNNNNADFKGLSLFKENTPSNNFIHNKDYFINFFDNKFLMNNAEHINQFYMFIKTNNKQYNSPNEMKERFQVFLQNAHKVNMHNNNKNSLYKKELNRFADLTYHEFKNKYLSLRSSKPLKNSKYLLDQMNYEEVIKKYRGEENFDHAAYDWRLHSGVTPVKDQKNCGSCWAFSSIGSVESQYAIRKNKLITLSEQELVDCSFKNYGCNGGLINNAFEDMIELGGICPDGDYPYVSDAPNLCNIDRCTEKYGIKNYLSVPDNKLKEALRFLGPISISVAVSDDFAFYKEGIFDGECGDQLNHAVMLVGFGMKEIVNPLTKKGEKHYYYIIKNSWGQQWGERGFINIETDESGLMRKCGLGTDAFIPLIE

[2] = system: Plasmodium falciparum; assay: Antimalarial activity against chloroquine-sensitive Plasmodium falciparum 3D7 infected in RBC measured after 24 to 30 hrs by microscopic analysis; assay type: functional, organism-based; conditions: 3D7, Erythrocyte
[3] = target: T1, Falcipain 2; assay: Inhibition of Plasmodium falciparum FP-2 using Cbz-Phe-Arg-AMC as substrate pretreated with enzyme for 10 mins followed by substrate addition and measured after 10 mins by fluorescence based analysis
[4] = system: Plasmodium falciparum; assay: Antimalarial activity against chloroquine-resistant Plasmodium falciparum RKL9 infected in RBC measured after 24 to 30 hrs by microscopic analysis; assay type: functional, organism-based; conditions: RKL9, Erythrocyte
[5] = system: Plasmodium falciparum; assay: Antimalarial activity against Chloroquine-sensitive Plasmodium falciparum 3D7 infected in human erythrocytes assessed as inhibition of parasite growth incubated for 72 hrs by Giemsa staining based analysis; assay type: functional, organism-based; conditions: 3D7, Erythrocyte
[6] = target: T1, Falcipain 2; assay: Inhibition of Plasmodium falciparum Itg2 trophozite extracts FP-2 using Z-phe-Arg-AMC as substrate pretreated with enzyme for 30 mins followed by substrate addition and measured for 30 mins by spectrofluorometry
[7] = system: Plasmodium falciparum; assay: Antiplasmodial activity against Plasmodium falciparum 3D7 infected in human erythrocytes assessed as growth inhibition measured after 52 hrs by SYBR green dye based assay; assay type: functional, organism-based; conditions: 3D7, Erythrocyte
[8] = target: T1, Falcipain 2; assay: Inhibition of Plasmodium falciparum FP2 using ZFR-AMC as substrate preincubated with enzyme for 10 mins followed by substrate addition and measured for 30 mins by fluorimetric analysis
[9] = Inhibition of Plasmodium vinckei extracts VP-2 using Z-phe-Arg-AMC as substrate pretreated with enzyme for 30 mins followed by substrate addition and measured for 30 mins by spectrofluorometry
[10] = system: Plasmodium falciparum; assay: Antiplasmodial activity against Plasmodium falciparum HB3; assay type: functional, organism-based
[11] = system: Plasmodium falciparum; assay: Antiplasmodial activity against Plasmodium falciparum D6; assay type: functional, organism-based
[12] = system: Plasmodium falciparum; assay: Antiplasmodial activity against Plasmodium falciparum Dd2; assay type: functional, organism-based
[13] = system: Plasmodium falciparum; assay: Antiplasmodial activity against Plasmodium falciparum ItG; assay type: functional, organism-based
[14] = system: Plasmodium falciparum; assay: Antiplasmodial activity against Plasmodium falciparum W2; assay type: functional, organism-based
[15] = system: Plasmodium falciparum; assay: Antimalarial activity against Chloroquine-resistant Plasmodium falciparum RKL9 infected in human erythrocytes assessed as inhibition of parasite growth incubated for 72 hrs by Giemsa staining based analysis; assay type: functional, organism-based; conditions: RKL9, Erythrocyte
[16] = target: T1, Falcipain 2; assay: Inhibition of Plasmodium falciparum trophozite extracts FP-2
[17] = target: T2, Falcipain 2 (Plasmodium falciparum) (UniProt Q9N6S8); assay: Inhibition of Plasmodium falciparum FP-2 using Z-Leu-Arg-AMC as substrate at 10 uM pretreated with enzyme for 30 mins followed by substrate addition and measured for 30 mins by spectrofluorometry; conditions: time 60.0 min
T2 sequence (whole entry): T1 sequence (Q9N6S8 whole entry)

Structure (SMILES): C[C@H]1[C@@H](Oc2ccc(/C=N/NC(=S)Nc3ccccc3F)cc2)O[C@@H]2O[C@@]3(C)CC[C@H]4[C@H](C)CC[C@@H]1[C@@]24OO3
- IC50 [1]: 2.51 µM

Structure (SMILES): Cc1ccc(-c2nn(-c3ccccc3)cc2/C=C/c2nnc(-c3ccc(Cl)cc3Cl)o2)cc1
- IC50 [2]: 0.486 µg/mL (≈ 1.03 µM)
- IC50 [3]: 110 µM
- IC50 [4]: 0.902 µg/mL (≈ 1.91 µM)

Structure (SMILES): Cc1ccc(NC(=S)N/N=C/c2ccc(O[C@H]3O[C@@H]4O[C@@]5(C)CC[C@H]6[C@H](C)CC[C@@H]([C@H]3C)[C@@]46OO5)cc2)c(C)c1
- IC50 [1]: 1.35 µM

Structure (SMILES): N#C/C(=C\c1cccc([N+](=O)[O-])c1)c1nc2ccccc2[nH]1
- IC50 [5]: 64.8 µM

Structure (SMILES): N#C/C(=C\c1ccc([N+](=O)[O-])cc1)c1nc2ccccc2[nH]1
- IC50 [5]: 68.9 µM

- IC50 [6]: 10 µM
Structure (SMILES): COc1ccc(-c2nccc3ccc(Cc4ccccc4)cc23)cc1

Structure (SMILES): Fc1ccc(-n2cc(COc3ccnc4cc(Cl)ccc34)nn2)cc1F
- EC50 [7]: 21.9 µM
- IC50 [8]: 25.6 µM

Structure (SMILES): O=[N+]([O-])c1ccc(-n2cc(COc3ccnc4cc(Cl)ccc34)nn2)cc1
- EC50 [7]: 49.9 µM
- IC50 [8]: 16.2 µM

- IC50 [9]: 0.2 µM
- IC50 [10]: 0.0016 µM
- IC50 [11]: 0.00151 µM
- IC50 [12]: 0.00066 µM
- IC50 [13]: 0.00103 µM
- IC50 [14]: 0.0012 µM
Structure (SMILES): CC(C)C[C@H](NC(=O)N1CCOCC1)C(=O)N[C@H](/C=C/S(=O)(=O)c1ccccc1)CCc1ccccc1

Structure (SMILES): COc1ccc(/C=C(\C#N)c2nc3ccccc3[nH]2)cc1O
- IC50 [15]: 5.46 µM
- IC50 [5]: 1.61 µM

- IC50 [8]: 7.37 µM
Structure (SMILES): CC(=O)Nc1ccc(S(=O)(=O)N2CCN(C(=O)c3cc(Cl)nc4ccccc34)CC2)cc1
- EC50 [7]: 1.95 µM

Structure (SMILES): Cc1ccc(NC(=O)N/N=C/c2ccc(O[C@H]3O[C@@H]4O[C@@]5(C)CC[C@H]6[C@H](C)CC[C@@H]([C@H]3C)[C@@]46OO5)cc2)c(C)c1
- IC50 [1]: 1.03 µM

- IC50 [8]: 4.2 µM
Structure (SMILES): O=C(c1cc(-c2ccccc2)nc2ccccc12)N1CCN(S(=O)(=O)c2ccc(Cl)cc2Cl)CC1
- EC50 [7]: 20 µM

- IC50 [8]: 2.14 µM
Structure (SMILES): COc1ccc(-c2cc(C(=O)N3CCN(S(=O)(=O)c4ccc(NC(C)=O)cc4)CC3)c3ccccc3n2)cc1
- EC50 [7]: 0.81 µM

- IC50 [16]: 0.00042 µM
Structure (SMILES): CC(C)C[C@H](NC(=O)N1CCOCC1)C(=O)N[C@@H](CCc1ccccc1)C(=O)CF ({Morpholide-CO}-Leu-[hPhe]-CH2F)

- IC50 [9]: 0.1 µM
- IC50 [6]: 0.08 µM
Structure (SMILES): O=C(N[C@H](/C=C/S(=O)(=O)c1ccccc1)CCc1ccccc1)[C@H](Cc1ccccc1)NC(=O)N1CCOCC1

Structure (SMILES): C(=C\c1cn(-c2ccccc2)nc1-c1ccccc1)/c1nnc(-c2c[nH]c3ccccc23)o1
- IC50 [2]: 0.245 µg/mL (≈ 0.57 µM)
- IC50 [3]: 7 µM
- IC50 [4]: 0.724 µg/mL (≈ 1.69 µM)

Structure (SMILES): Fc1ccc(-n2cc(COc3ccnc4cc(Cl)ccc34)nn2)cc1Cl
- EC50 [7]: 406 µM
- IC50 [8]: 45.1 µM

- inhibition [17]: 85.7%
- IC50 [1]: 2.95 µM
Structure (SMILES): C=CCn1c(SCC(=O)Nc2sc3c(c2C(N)=O)CCC3)nc2scc(-c3ccc(Cl)cc3)c2c1=O

Structure (SMILES): Fc1ccc(-c2nn(-c3ccccc3)cc2/C=C/c2nnc(-c3c[nH]c4ccccc34)o2)cc1
- IC50 [4]: 1.37 µg/mL (≈ 3.07 µM)

Structure (SMILES): N#C/C(=C\c1cccc(Br)c1)c1nc2ccccc2[nH]1
- IC50 [15]: 43.4 µM
- IC50 [5]: 14.4 µM

- inhibition [17]: 82.2%
- IC50 [1]: 5.77 µM
Structure (SMILES): C=CCn1c(SCC(=O)Nc2sc3c(c2C(N)=O)CCC3)nc2sc3c(c2c1=O)CCCC3

- IC50 [8]: 13 µM
Structure (SMILES): O=C(c1cc(-c2ccccc2)nc2ccccc12)N1CCN(c2cc(=O)[nH]c3ccccc23)CC1
- EC50 [7]: 20.2 µM

Structure (SMILES): C(=C\c1cn(-c2ccccc2)nc1-c1ccccc1)/c1nnc(-c2ccco2)o1
- IC50 [2]: 0.248 µg/mL (≈ 0.652 µM)
- IC50 [3]: 14 µM
- IC50 [4]: 0.863 µg/mL (≈ 2.27 µM)

- IC50 [8]: 26.6 µM
Structure (SMILES): Cc1ccc(-n2cc(COc3ccnc4cc(Cl)ccc34)nn2)cc1
- EC50 [7]: 49.5 µM

Structure (SMILES): C[C@H]1[C@H](OC(=O)c2ccc(/C=N/NC(=O)Nc3ccccc3F)cc2)O[C@@H]2O[C@@]3(C)CC[C@H]4[C@H](C)CC[C@@H]1[C@@]24OO3
- IC50 [1]: 0.47 µM
